Laboratory results reported in patent publication US10745402B2, “Morphinan derivatives and use thereof” (PURDUE PHARMA L.P., priority 2017, dated 2020).

What was measured:
[1] = target: T1, μ-opioid receptor (Homo sapiens, UniProt P35372); assay: β-Arr2 activity response in U2OS cells, μ-opioid receptor; assay type: cell-based
Protocol: (§1) TABLE 4 provides activity response of certain Compounds of the present disclosure to the μ- and κ-opioid receptors that was determined in the above-described functional assays using U2OS cells.

[2] = test system: Sprague-Dawley rats; assay: Hot plate analgesia in rats (observation of sedation); assay type: in vivo, rat
Protocol: To assess the actions of a Compound of the present disclosure for the treatment or prevention of acute pain, the rat hot plate test can also be used. Rats are tested using a hot plate apparatus consisting of a clear plexiglass cylinder with a heated metal floor maintained at a temperature of 48-52° C. (Model 7280, commercially available from Ugo Basile of Italy). […] Hot plate latencies are measured immediately before (pre-treatment) and 1, 3, and 5 hours following administration of a Compound of the present disclosure. The nocifensive behavioral endpoint is defined as any of the following: 1) paw withdrawal, either as a sustained lift or with shaking or licking; 2) alternating foot lifting; 3) escape or attempted escape from the testing device; or 4) vocalization. Data are expressed as response latency(s) and the percentage of the maximal possible effect is calculated as described above for the tail flick test. […]
Male, Sprague-Dawley rats (Harlan, weight 211-246 g; n=5-10/group) were baselined (“BL”) for latency on a hot plate which was set to 52° C. the day prior to dosing. […] The next day, vehicle (0.5% MC) po, Compound 1 po; or morphine sc, the positive control, were administered and thermal latency was assessed 1, 3, and 5 hours after dosing.
Data were analyzed by a two-way ANOVA using a Bonferroni Multiple Comparisons test, where *P<0.05 and ****P<0.0001 vs vehicle. […]

[3] = test system: Sprague-Dawley rats; assay: Conditioned Place Preference (CPP) in rats; assay type: in vivo, rat; details: po in 0.5% MC, day 8, one-way ANOVA
Excerpt: Conditioned Place Preference (CPP) test is a test typically used to measure drug liking.
Male, Sprague-Dawley rats (Harlan, weight 213-240 g) at the beginning of the dosing paradigm were baselined (“BL”) for initial preference (pretest; day 1) using automated conditioning chambers (MedAssociates, Fairfax, Vt.); n=10/group. An unbiased counterbalanced design was used in which rats were randomly assigned to each group with respect to compartment pairings based on weight.
Compound 1 was formulated in 0.5% MC and administered po., while oxycodone, the positive control was dissolved in saline and administered sc.
During the first conditioning session, half of the rats were confined to the black compartment paired with either vehicle (0.5% MC) po, oxycodone sc, or Compound 1 po administration, while the other half were placed in white compartment with similar pairings.
Rats were conditioned on alternate days for 6 total sessions (3 vehicle/3 oxycodone or Compound 1). Control rats received vehicle at each conditioning session. […]
Conditioned Place Preference (CPP) was determined on day 8, and is represented as the difference between the time (seconds) the rat spent in the drug-paired and vehicle-paired compartments. Data are represented as the means±S.E.M., and were analyzed by a one-way ANOVA where *P<0.05 vs vehicle.

[4] = target: T1, μ-opioid receptor; assay: [35S]GTPγS functional assay, μ-opioid receptor (HEK-293 or CHO cells); assay type: biochemical; set-up: made in house; host or cells: HEK-293 or CHO
Protocol: [^35S]GTPγS functional assays were conducted using freshly thawed μ-receptor membranes prepared in-house from a cell line expressing recombinant μ opioid receptor in a HEK-293, CHO or U-2 OS cell background, or purchased from a commercial source (Perkin Elmer, Shelton, Conn.; or DiscovRx, Fremont, Calif.). Assay reactions were prepared by sequentially adding the following reagents to binding buffer (100 mM NaCl, 10 mM MgCl2, 20 mM HEPES, pH 7.4) on ice (final concentrations indicated): membrane protein (0.026 mg/mL), saponin ([…]), GDP ([…]) and [^35S]GTPγS (0.20 nM; Perkin Elmer, Shelton, Conn.). The prepared membrane solution (190 μl/well) was transferred to 96-shallow well polypropylene plates containing 10 μl of 20× concentrated stock solutions of the agonist [D-Ala^2, N-methyl-Phe^4 Gly-ol^5]-enkephalin (DAMGO) prepared in dimethyl sulfoxide (DMSO). Plates were incubated for 30 min at about 25° C. with shaking. […] BetaScint scintillation cocktail (Perkin Elmer, Shelton, Conn.) was added (50 μl/well) and plates were counted using a Packard Top-Count for 1 min/well. Data were analyzed using the sigmoidal dose-response curve fitting functions in GraphPad PRISM v. […]
(§2) TABLE 3 provides activity response of certain Compounds of the present disclosure to the μ- and κ-opioid receptors that was determined in the above-described functional assays using HEK-293 or CHO cells.

[5] = target: T2, κ-opioid receptor (Homo sapiens, UniProt P41145); assay: [35S]GTPγS functional assay, κ-opioid receptor (HEK-293 or CHO cells); assay type: biochemical; set-up: made in house; host or cells: HEK-293 or CHO
T2 sequence (P41145 whole entry): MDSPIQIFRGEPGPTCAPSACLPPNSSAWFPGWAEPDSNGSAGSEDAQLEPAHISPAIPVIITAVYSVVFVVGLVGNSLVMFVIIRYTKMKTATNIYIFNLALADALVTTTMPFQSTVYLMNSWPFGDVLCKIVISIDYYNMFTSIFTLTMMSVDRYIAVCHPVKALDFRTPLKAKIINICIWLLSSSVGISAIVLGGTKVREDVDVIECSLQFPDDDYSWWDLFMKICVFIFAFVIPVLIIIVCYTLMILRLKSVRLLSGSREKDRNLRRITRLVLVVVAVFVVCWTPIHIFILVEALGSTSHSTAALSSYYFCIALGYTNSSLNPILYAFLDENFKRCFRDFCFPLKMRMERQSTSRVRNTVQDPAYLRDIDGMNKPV
Protocol: Membranes from HEK-293 cells, CHO or U-2 OS cells expressing the recombinant human kappa opioid receptor (κ) were prepared by lysing cells in ice cold hypotonic buffer (2.5 mM MgCl2, 50 mM HEPES, pH 7.4) (10 mL/10 cm dish) followed by homogenization with a tissue grinder/Teflon pestle. Membranes were collected by centrifugation at 30,000×g for 15 min at 4° C. and pellets were resuspended in hypotonic buffer to a final concentration of 1-3 mg/mL. Protein concentrations were determined using the BioRad protein assay reagent with bovine serum albumen as standard. Aliquots of κ receptor membranes were stored at −80° C.
Functional [^35S]GTPγS binding assays were conducted as follows. κ opioid receptor membrane solution was prepared by sequentially adding final concentrations of 0.026 μg/μl κ membrane protein (in-house), 10 μg/mL saponin, 3 μM GDP and 0.20 nM [^35S]GTPγS to binding buffer (100 mM NaCl, 10 mM MgCl2, 20 mM HEPES, pH 7.4) on ice. […] Fifty μl/well scintillation cocktail (Perkin Elmer, Shelton, Conn.) was added and plates were counted in a Packard Top-Count for 1 min/well.
as §2

[6] = target: T2, κ-opioid receptor; assay: β-Arr2 activity response in U2OS cells, κ-opioid receptor; assay type: cell-based; set-up: expressed in transfected cells; host or cells: U2OS (U-2 OS)
Protocol: as §1

T1 sequence (P35372 whole entry, species assumed): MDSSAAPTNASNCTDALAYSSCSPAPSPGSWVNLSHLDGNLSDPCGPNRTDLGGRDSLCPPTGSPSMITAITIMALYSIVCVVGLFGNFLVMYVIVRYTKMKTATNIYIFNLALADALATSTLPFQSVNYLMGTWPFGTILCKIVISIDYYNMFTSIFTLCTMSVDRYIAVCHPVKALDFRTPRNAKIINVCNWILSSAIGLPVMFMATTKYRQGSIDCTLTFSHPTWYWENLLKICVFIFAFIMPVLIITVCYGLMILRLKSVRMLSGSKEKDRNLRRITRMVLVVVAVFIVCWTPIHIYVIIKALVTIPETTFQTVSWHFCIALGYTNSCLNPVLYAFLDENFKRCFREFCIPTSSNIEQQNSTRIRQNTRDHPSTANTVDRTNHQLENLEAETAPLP

SMILES | EC50 [1] | Emax ([1]; U2OS cells) | appearance of animals (sedation) in hot plate study ([2]; 30-75 mg/kg po) | Conditioned Place Preference compared to the vehicle group [3] | EC50 [4] | Emax ([4]; HEK-293 or CHO cells, relative to DAMGO, read-out: GTPγD μ Emax) | EC50 [5] | Emax ([5]; HEK-293 or CHO cells, relative to U69,593, read-out: GTPγD κ Emax) | EC50 [6] | Emax ([6]; U2OS cells) | appearance of animals (sedation) in hot plate study ([2]; sc, positive control)
CN1CC[C@]23CCCC[C@@]2(O)[C@H]1Cc1ccc(C(N)=O)cc13 [Compound 1, (4bS,8aS,9R)-8a-hydroxy-11-methyl-6,7,8,8a,9,10-hexahydro-5H-9,4b-(epiminoethano)phenanthrene-3-carboxamide] | 36.7 ± 5.4 nM | 8.58 ± 0.3% | appeared to be sedate | not statistically significant | 44.2 ± 11.9 nM | 50.5 ± 0.95% | 620 ± 91.1 nM | 14.9 ± 0.63% | > 20000 nM | -0.83 ± 0.17% | –
CN1CC[C@]23c4c5ccc(O)c4O[C@H]2[C@@H](O)C=C[C@H]3[C@H]1C5 [morphine, reference compound] | – | – | – | – | – | – | – | – | – | – | appeared to be sedate
